Values after ≈ are worked out from the molar mass of the structure shown.
Key:
Type in all cases: functional, cell-based
[1] = Inhibitory concentration against Lymphoma EC4 cells measured for endothelial cell proliferation activity; conditions: Homo sapiens
[2] = Inhibitory concentration against Calf pulmonary artery endothelial cells (CPAE) measured for endothelial cell proliferation activity; conditions: Bos taurus
P388 = assay: Inhibitory concentration against Murine leukemia P388 measured for endothelial cell proliferation activity; conditions: Mus musculus

## CO[C@@H]1[C@H](OC(=O)NC(=O)CCl)C[C@]2(CO2)[C@H]1[C@]1(C)O[C@H]1CCC(C)C
[1]
  IC50: 1.1 µg/mL (≈ 2.82 µM)
[2]
  IC50: 0.57 µg/mL (≈ 1.46 µM)
P388
  IC50: ≥ 10 µg/mL

## CO[C@@H]1[C@H](OC(=O)NC(=O)CCl)CC[C@]2(CO2)[C@H]1[C@@]1(C)OC1CC=C(C)C (single isomer, unassigned) [O-CHLOROACETYLCARBAMOYLFUMAGILLOL]
[1]
  IC50: 0.0038 µg/mL (≈ 0.00946 µM)
[2]
  IC50: 0.0002 µg/mL (≈ 0.000498 µM)
P388
  IC50: ≥ 10 µg/mL

## CO[C@@H]1[C@H](OC(=O)NC(=O)CCl)C[C@]2(CO2)[C@H]1[C@@]1(C)O[C@@H]1CCC(C)C
[1]
  IC50: 0.3 µg/mL (≈ 0.769 µM)
[2]
  IC50: 0.088 µg/mL (≈ 0.226 µM)
P388
  IC50: ≥ 10 µg/mL

## CO[C@@H]1[C@H](OC(=O)/C=C/C=C/C=C/C=C/C(=O)O)CC[C@]2(CO2)[C@H]1[C@@]1(C)OC1CC=C(C)C (single isomer, unassigned) [FUMAGILLIN]
[1]
  IC50: 0.0016 µg/mL (≈ 0.00349 µM)
[2]
  IC50: 0.003 µg/mL (≈ 0.00654 µM)
P388
  IC50: ≥ 10 µg/mL
